Results taken from ChEMBL document CHEMBL5584338, “Design, Synthesis, and Biological Evaluation of 5-Amino-4-fluoro-1H-benzo[d]imidazole-6-carboxamide Derivatives as Novel and Potential MEK/RAF Complex Inhibitors Based on the "Clamp" Strategy” (J Med Chem, 2024).
Active and inactive are the calls of the source. The calls are words filed in the database; no cut-off is given here.

How the values were obtained:
MIA PaCa-2 [1] = test: Antiproliferative activity against human MIA PaCa-2 cells harboring KRAS G12C mutant incubated for 72 hrs by CCK8 assay; format: functional, cell-based; details: MIA PaCa-2, 72 h
MIA PaCa-2 [2] = test: Antiproliferative activity against human MIA PaCa-2 cells harboring KRAS G12C mutant at 0.1 uM incubated for 72 hrs by CCK8 assay relative to control; format: functional
HCT-116 [3] = test: Antiproliferative activity against human HCT-116 cells harboring KRAS G13D mutant incubated for 72 hrs by CCK8 assay; format: functional, cell-based; details: HCT-116, 72 h
HCT-116 [4] = test: Antiproliferative activity against human HCT-116 cells harboring KRAS G13D mutant at 1 uM incubated for 72 hrs by CCK8 assay relative to control; format: functional
[5] = target: T1, Dual specificity mitogen-activated protein kinase kinase 1 (Homo sapiens, UniProt Q02750); test: Inhibition of MEK1 (unknown origin) assessed as remaining activity at 0.1 uM relative to control
[6] = target: T2, Serine/threonine-protein kinase B-raf (Homo sapiens, UniProt P15056); test: Inhibition of BRAF (unknown origin) assessed as remaining activity at 0.1 uM relative to control
[7] = target: T1, Dual specificity mitogen-activated protein kinase kinase 1; test: Inhibition of MEK1 (unknown origin)
[8] = system: Mitogen-activated protein kinase 1/3 (ERK1/2) (Homo sapiens); test: Inhibition of ERK phosphorylation in human MIA PaCa-2 cells upto 1 uM incubated for 4 hrs by Western blot analysis
[9] = Stability in human liver microsomes assessed as half life at 200 uM preincubated for 5 mins followed by NADPH addition measured upto 60 mins by LC-MS/MS analysis; format: ADME, Microsome; details: time 65 min
HeLa = test: Antiproliferative activity against human HeLa cells incubated for 72 hrs by CCK8 assay; format: functional, cell-based
[10] = Antiproliferative activity against mouse C26 cells harboring KRAS G12D mutant incubated for 72 hrs by CCK8 assay; format: functional, cell-based, C-26; details: C26, 72 h
[11] = target: T2, Serine/threonine-protein kinase B-raf; test: Inhibition of BRAF (unknown origin)
[12] = Antiproliferative activity against rat H9c2 cells incubated for 72 hrs by CCK8 assay; format: toxicity, cell-based
[13] = target: Dual specificity mitogen-activated protein kinase kinase; MEK1/2 (Homo sapiens) (UniProt P36507+Q02750); test: Inhibition of MEK phosphorylation in human MIA PaCa-2 cells upto 1 uM incubated for 4 hrs by Western blot analysis; format: cell-based
Dual specificity mitogen-activated protein kinase kinase; MEK1/2 (Homo sapiens), sequence (P36507 whole entry, looked up): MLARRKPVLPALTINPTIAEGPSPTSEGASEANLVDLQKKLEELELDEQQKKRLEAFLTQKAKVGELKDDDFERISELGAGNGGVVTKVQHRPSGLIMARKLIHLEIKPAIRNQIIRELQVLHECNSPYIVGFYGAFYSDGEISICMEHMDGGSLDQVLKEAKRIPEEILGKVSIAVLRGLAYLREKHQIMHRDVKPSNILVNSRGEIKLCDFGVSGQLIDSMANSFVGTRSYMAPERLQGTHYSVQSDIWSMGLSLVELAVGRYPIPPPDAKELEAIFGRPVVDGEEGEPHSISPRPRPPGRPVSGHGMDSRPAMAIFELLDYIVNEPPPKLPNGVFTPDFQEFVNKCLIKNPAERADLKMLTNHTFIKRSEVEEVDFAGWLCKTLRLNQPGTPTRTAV
Dual specificity mitogen-activated protein kinase kinase; MEK1/2 (Homo sapiens), sequence (Q02750 whole entry, looked up): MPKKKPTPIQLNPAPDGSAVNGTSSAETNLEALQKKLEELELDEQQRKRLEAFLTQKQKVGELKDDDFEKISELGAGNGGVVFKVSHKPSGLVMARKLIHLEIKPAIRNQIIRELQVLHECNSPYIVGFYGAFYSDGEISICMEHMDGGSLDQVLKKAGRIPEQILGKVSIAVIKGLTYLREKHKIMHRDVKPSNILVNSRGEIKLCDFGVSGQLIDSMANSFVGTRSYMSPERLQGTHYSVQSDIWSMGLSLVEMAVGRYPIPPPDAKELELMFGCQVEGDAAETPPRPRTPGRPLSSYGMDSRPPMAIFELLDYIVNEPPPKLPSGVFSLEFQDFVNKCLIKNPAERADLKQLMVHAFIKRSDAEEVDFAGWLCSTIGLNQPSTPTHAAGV

T2 sequence (P15056 whole entry): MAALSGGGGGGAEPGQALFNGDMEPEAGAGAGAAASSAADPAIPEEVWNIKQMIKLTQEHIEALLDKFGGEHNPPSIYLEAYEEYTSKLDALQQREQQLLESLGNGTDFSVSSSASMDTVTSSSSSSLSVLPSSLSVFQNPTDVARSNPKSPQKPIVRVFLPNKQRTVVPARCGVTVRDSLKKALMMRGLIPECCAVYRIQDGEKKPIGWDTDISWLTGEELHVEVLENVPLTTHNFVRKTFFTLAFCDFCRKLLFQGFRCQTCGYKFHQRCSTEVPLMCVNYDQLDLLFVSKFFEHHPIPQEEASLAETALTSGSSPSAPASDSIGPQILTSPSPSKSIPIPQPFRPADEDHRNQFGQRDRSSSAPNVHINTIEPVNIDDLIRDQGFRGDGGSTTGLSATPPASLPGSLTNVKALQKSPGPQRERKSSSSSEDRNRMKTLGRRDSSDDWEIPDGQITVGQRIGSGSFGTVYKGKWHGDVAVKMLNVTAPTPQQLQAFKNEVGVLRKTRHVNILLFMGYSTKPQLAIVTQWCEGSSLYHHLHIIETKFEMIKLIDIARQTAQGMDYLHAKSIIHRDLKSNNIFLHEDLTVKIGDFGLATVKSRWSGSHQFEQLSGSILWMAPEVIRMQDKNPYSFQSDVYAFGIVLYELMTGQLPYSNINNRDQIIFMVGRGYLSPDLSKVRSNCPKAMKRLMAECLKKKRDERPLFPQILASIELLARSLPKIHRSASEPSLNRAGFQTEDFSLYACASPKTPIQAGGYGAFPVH
T1 sequence (Q02750 whole entry): as the sequence (Q02750 whole entry, looked up) above

Structure (SMILES)	IC50 (MIA PaCa-2 [1])	inhibition at 0.1 µM (MIA PaCa-2 [2])	IC50 (HCT-116 [3])	inhibition at 1 µM (HCT-116 [4])	Activity [5]	Activity [6]	also measured
Cn1cnc2c(F)c(Nc3ccc(Br)cc3F)c(C(=O)NOCCO)cc21 [BINIMETINIB]	182 nM	58.8%	2000 nM	41.4%	–	–	–
CCNS(=O)(=O)Nc1cccc(Cn2cnc3c(F)c(Nc4ccc(C5CCC5)cc4F)c(C(=O)NOCCO)cc32)c1F	942 nM	29%	–	56.2%	84%	4%	–
CC(C)NS(=O)(=O)Nc1cccc(Cn2cnc3c(F)c(Nc4ccc(C5CC5)cc4F)c(C(=O)NOCCO)cc32)c1	150 nM	65.9%	132 nM	59.3%	55%	4%	–
O=C(NOCCO)c1cc2c(ncn2Cc2cccc(NC(=O)C3CC3)c2)c(F)c1Nc1ccc(C2CC2)cc1F	628 nM	45%	–	19.3%	–	–	–
CNS(=O)(=O)N1CCC(Cn2cnc3c(F)c(Nc4ccc(C5CC5)cc4F)c(C(=O)NOCCO)cc32)C1 (stereo not given)	–	-13.4%	–	2.43%	–	–	–
CCNS(=O)(=O)Nc1cccc(Cn2cnc3c(F)c(Nc4ccc(Br)cc4F)c(C(=O)NOCCO)cc32)c1F	362 nM	22.8%	150 nM	65.1%	20%	2%	–
CNS(=O)(=O)Nc1cccc(Cn2cnc3c(F)c(Nc4ccc(C5CC5)cc4F)c(C(N)=O)cc32)c1	–	15.8%	–	21.9%	–	–	IC50 [7]: > 2000 nM
O=C(NOCCO)c1cc2c(ncn2Cc2cccc(NC(=O)C3CCCC3)c2)c(F)c1Nc1ccc(C2CC2)cc1F	–	-29.7%	–	4.21%	91%	71%	–
CCNS(=O)(=O)Nc1cc(F)cc(Cn2cnc3c(F)c(Nc4ccc(C5CC5)cc4F)c(C(=O)NOCCO)cc32)c1	32 nM	76.5%	140 nM	56.7%	59%	5%	–
CNS(=O)(=O)Nc1cccc(Cn2cnc3c(F)c(Nc4ccc(C5CCCC5)cc4F)c(C(=O)NOCCO)cc32)c1F	–	12.1%	–	24.8%	98%	13%	–
CCNS(=O)(=O)Nc1cccc(Cn2cnc3c(F)c(Nc4ccc(C5CC5)cc4F)c(C(=O)NOCCO)cc32)c1Cl	31 nM	76%	731 nM	49.6%	20%	3%	–
CNS(=O)(=O)Nc1cc(Cn2cnc3c(F)c(Nc4ccc(C5CC5)cc4F)c(C(=O)NOCCO)cc32)ccc1F	611 nM	31.6%	–	35.2%	85%	16%	–
CCNS(=O)(=O)Nc1cccc(Cn2cnc3c(F)c(Nc4ccc(C5CCCC5)cc4F)c(C(=O)NOCCO)cc32)c1F	–	6.88%	–	26.9%	–	–	–
CCNS(=O)(=O)Nc1ccc(F)c(Cn2cnc3c(F)c(Nc4ccc(C5CC5)cc4F)c(C(=O)NOCCO)cc32)c1	–	-38.8%	–	17.5%	–	–	–
CNS(=O)(=O)Nc1cccc(Cn2cnc3c(F)c(Nc4ccc(C5CCC5)cc4F)c(C(=O)NOCCO)cc32)c1F	249 nM	52.8%	898 nM	48.5%	76%	5%	–
CCC(=O)Nc1cccc(Cn2cnc3c(F)c(Nc4ccc(C5CC5)cc4F)c(C(=O)NOCCO)cc32)c1	985 nM	18%	–	17.8%	89%	75%	–
CCNS(=O)(=O)Nc1cccc(Cn2cnc3c(F)c(Nc4ccc(Br)cc4F)c(C(=O)NOCCO)cc32)c1Cl	–	21.9%	–	39.8%	–	–	–
CCNS(=O)(=O)Nc1cccc(Cn2cnc3c(F)c(Nc4ccc(C)cc4F)c(C(=O)NOCCO)cc32)c1F	219 nM	55.7%	457 nM	57.6%	54%	4%	–
O=C(NOCCO)c1cc2c(ncn2Cc2cccc(NC(=O)C3CCC3)c2)c(F)c1Nc1ccc(C2CC2)cc1F	1280 nM	38.9%	–	25.1%	76%	32%	–

Structure (SMILES)	IC50 (MIA PaCa-2 [1])	inhibition at 0.1 µM (MIA PaCa-2 [2])	IC50 (HCT-116 [3])	inhibition at 1 µM (HCT-116 [4])	Activity [5]	Activity [6]	also measured
CNS(=O)(=O)Nc1cc(F)cc(Cn2cnc3c(F)c(Nc4ccc(C5CC5)cc4F)c(C(=O)NOCCO)cc32)c1	47 nM	65.8%	173 nM	57.4%	53%	5%	–
CNS(=O)(=O)Nc1cccc(Cn2cnc3c(F)c(Nc4ccc(Br)cc4F)c(C(=O)NOCCO)cc32)c1Cl	–	28.4%	–	47.8%	15%	3%	–
CCNS(=O)(=O)Nc1cccc(Cn2cnc3c(F)c(Nc4ccc(I)cc4F)c(C(=O)NOCCO)cc32)c1F	43 nM	65.3%	202 nM	69.1%	8%	1%	–
CCNS(=O)(=O)Nc1cccc(Cn2cnc3c(F)c(F)c(C(=O)NOCCO)cc32)c1F	–	6.04%	–	10.8%	–	–	–
CNS(=O)(=O)Nc1cccc(Cn2cnc3c(F)c(F)c(C(=O)NOCCO)cc32)c1F	–	24.7%	–	14.8%	–	–	–
CC(=O)Nc1cccc(Cn2cnc3c(F)c(Nc4ccc(C5CC5)cc4F)c(C(=O)NOCCO)cc32)c1	237 nM	64.8%	–	33.3%	75%	22%	inhibition [8]: Active
CNS(=O)(=O)Nc1cccc(Cn2cnc3c(F)c(Nc4ccc(I)cc4F)c(C(=O)NOCCO)cc32)c1F	71 nM	62%	74 nM	64.8%	9%	-2%	half-life at 200 µM [9]: 25 min; IC50 (HeLa): > 10000 nM; IC50 [10]: 11 nM; IC50 [7]: 8 nM; inhibition [8]: Active; IC50 [11]: 4 nM; IC50 at 72 h [12]: > 50000 nM; inhibition [13]: Active
CNS(=O)(=O)Nc1cccc(Cn2cnc3c(F)c(Nc4ccc(Br)cc4F)c(C(=O)NOCCO)cc32)c1F	225 nM	35.7%	113 nM	60.3%	16%	3%	–
CNS(=O)(=O)Nc1cccc(Cn2cnc3c(F)c(Nc4ccc(C5CC5)cc4F)c(C(=O)NOCCO)cc32)c1Cl	169 nM	62.6%	626 nM	55.6%	19%	3%	–
O=C(NOCCO)c1cc2c(ncn2Cc2cccc(NC(=O)C3CCCCC3)c2)c(F)c1Nc1ccc(C2CC2)cc1F	–	11.5%	–	13.7%	88%	35%	–
CC(C)CNS(=O)(=O)Nc1cccc(Cn2cnc3c(F)c(Nc4ccc(C5CC5)cc4F)c(C(=O)NOCCO)cc32)c1	48 nM	55.8%	425 nM	60.2%	80%	5%	–
CCNS(=O)(=O)Nc1cccc(Cn2cnc3c(F)c(Nc4ccc(I)cc4F)c(C(=O)NOCCO)cc32)c1Cl	127 nM	43.1%	377 nM	61.4%	9%	0%	–
CNS(=O)(=O)Nc1nccc(Cc2c(C)c3ccc(Oc4ncccn4)cc3oc2=O)c1F [AVUTOMETINIB]	115 nM	59.6%	739 nM	56.1%	–	–	inhibition [13]: Active
CS(=O)(=O)Nc1cccc(Cn2cnc3c(F)c(Nc4ccc(C5CC5)cc4F)c(C(=O)NOCCO)cc32)c1	138 nM	50.5%	–	46.2%	75%	6%	–
CCNS(=O)(=O)Nc1cc(Cn2cnc3c(F)c(Nc4ccc(C5CC5)cc4F)c(C(=O)NOCCO)cc32)ccc1F	–	34.5%	–	17.5%	–	–	–
CNS(=O)(=O)Nc1ccc(F)c(Cn2cnc3c(F)c(Nc4ccc(C5CC5)cc4F)c(C(=O)NOCCO)cc32)c1	–	7.1%	–	12%	79%	21%	–
CNS(=O)(=O)N1CCCC(Cn2cnc3c(F)c(Nc4ccc(C5CC5)cc4F)c(C(=O)NOCCO)cc32)C1 (stereo not given)	–	31.1%	–	-9.58%	–	–	–
CNS(=O)(=O)Nc1cccc(Cn2cnc3c(F)c(Nc4ccc(C)cc4F)c(C(=O)NOCCO)cc32)c1F	861 nM	57.7%	694 nM	74.8%	58%	3%	–
CNS(=O)(=O)Nc1cccc(Cn2cnc3c(F)c(Nc4ccc(I)cc4F)c(C(=O)NOCCO)cc32)c1Cl	60 nM	60.8%	352 nM	66.7%	5%	1%	–
